Molecular target: trORAS (truncated ORAS) (Neurospora crassa, UniProt Q7S6N4)
Experiment: HPLC of CoASH release, initial velocities, Michaelis-Menten fit
Type: biochemical
Details: malonyl-CoA (100 mM [sic]) as extender; 50 mM Tris-HCl pH 7.0; 30 °C

Km: 3.5 µM
Compound: CCCCCCCCCCCCCCCCCC(=O)SCCNC(=O)CCNC(=O)[C@H](O)C(C)(C)COP(=O)(O)OP(=O)(O)OC[C@H]1O[C@@H](n2cnc3c(N)ncnc32)[C@H](O)[C@@H]1OP(=O)(O)O [7a, stearoyl-CoA]

From paper PMC2610677 (Chemistry & biology, 2008)
